Source: patent US9826766B2 (priority 2012, dated 2017)

How the values were obtained:
Conditions in all cases: mouse, in vivo
[1] = tested on: enterotoxinogenic strain of Clostridium perfringens
[2] = tested on: enterotoxinogenic strain of Clostridium perfringens; set-up: species or system axenic C3H/He mice
[3] = tested on: enterotoxinogenic strain of Clostridium perfringens; set-up: species or system axenic C3H/He mice; remark: listed apart in the source

Structure (SMILES): OC[C@H]1O[C@@H](O[C@H]2[C@H](O)[C@@H](O)C(O)O[C@@H]2CO)[C@H](O)[C@@H](O)[C@H]1O (some centres unmarked) [Lactose]
- mice died [1]: 100%
- Count (log CFU/g of feces) of Clostridium perfringens [2]: Mice dead or dying
- Clostridium perfringens count, Blood [3]: 2.3 log CFU/g
- Clostridium perfringens count, Cecum [3]: 5.5 ± 0.8 log CFU/g
- Clostridium perfringens count, Colon [3]: 6.6 ± 0.1 log CFU/g
- Clostridium perfringens count, Ileum [3]: 3.4 ± 0.8 log CFU/g
- Clostridium perfringens count, Kidney [3]: 3.0 log CFU/g
- Clostridium perfringens count, Liver [3]: 4.4 log CFU/g
- Clostridium perfringens count, Spleen [3]: 4.2 log CFU/g
- bacterial translocation, in words [3]: promotes bacterial translocation
- colonization of the intestine vs control mice, in words [3]: weak colonization of the intestine
